Each block holds one molecule with its values, some of them ahead of it.
What was measured:
rhBMP-2 = target: T1, rhBMP-2 (Homo sapiens, UniProt P12643); assay: Surface plasmon resonance kinetic analysis (Biacore X), ligand rhBMP-2; type: binding
T1 construct: purchased R&D Systems, Minneapolis, Minn
T1 sequence (P12643 283-396): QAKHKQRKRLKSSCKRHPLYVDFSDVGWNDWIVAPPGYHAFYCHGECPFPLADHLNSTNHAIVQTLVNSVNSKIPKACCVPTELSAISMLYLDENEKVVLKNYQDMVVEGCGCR
Experimental: (§1) The supernatant was decanted and used for analyses. Protein concentrations were determined suing UV spectroscopy at an absorbance of 280 nm. Extinction coefficients were calculated using ProtParam tool (www.expasy.ch/tools/protparam.html). Flow rates ranged from 5 to 50 μl/min, and injection volumes were 20 to 100 μl. To ensure uniformity, an effort was made to react sufficient ligand to the chip to give a baseline value of about 2500 RU (response units). The kinetic constants ka (on rate, association constant, “recognition”) and kd (off rate, dissociation constant, “stability”) as well as the equilibrium constant KD (equilibrium constant, “affinity”) were determined by a Langmuir analysis using BIAevaluation software (version 3.2) installed on the instrument by the manufacturer.

Swiss-Weber mice = assay: Mouse hindquarter (muscle pouch) ectopic bone formation assay, BBP alone or with rhBMP-2; type: in vivo; details: for Bone Area / Bone Mineral Content: 21 days, mean SE
Experimental: The osteogenic activity of material was tested using male Swiss-Weber mice aged 8 to 10 weeks were used (Taconic Farms, Germantown, N.Y.). […] The dried material was placed in a #5 gelatin capsule and sterilized by exposure to chloroform vapor. To conduct the assay, mice were anesthetized using 1% isoflurane delivered in oxygen at 2 l/min through a small animal anesthesia machine (VetEquip, Pleasanton, Calif.). Animals were affixed to a surgery board and the fur over the hindquarters shaved. The skin was cleaned with 70% ethanol and a midline incision made over the spine adjacent to the hindquarters. Blunt dissection with scissors was used to expose the quadriceps muscle on one side. A small pouch was made in the muscle using the point of scissors and the #5 capsule containing the test material was inserted into the pouch. The skin was then closed with three 11 mm Michel surgical clips and the animal returned to its cage for monitoring.
After 21 days the animals were killed and the hindquarter removed. Radiological examination of the specimens was accomplished using a small parts X-Ray cabinet (Faxitron, Wheeling, Ill.). For quantization of bone formation, bone area and the bone mineral content (BMC) of an area of interest encompassing the site of ectopic bone formation was determined using a PIXImus2 small animal densitometer (GE Lunar, Madison, Wis.). Specimens were then placed in buffered formalin and submitted for routine processing for histological examination.

rmGDF-5 = target: T2, rmGDF-5 (Mus musculus, UniProt P43027); assay: Surface plasmon resonance kinetic analysis (Biacore X), ligand rmGDF-5; type: binding
T2 construct: purchased R&D Systems, Minneapolis, Minn
T2 sequence (P43027 376-495): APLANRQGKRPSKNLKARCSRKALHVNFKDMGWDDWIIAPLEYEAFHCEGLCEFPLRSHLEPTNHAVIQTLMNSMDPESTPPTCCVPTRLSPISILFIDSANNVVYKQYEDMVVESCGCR
Experimental: The supernatant was decanted and used for analyses. […] Extinction coefficients were calculated using ProtParam tool (www.expasy.ch/tools/protparam.html). Flow rates ranged from 5 to 50 μl/min, and injection volumes were 20 to 100 μl. To ensure uniformity, an effort was made to react sufficient ligand to the chip to give a baseline value of about 2500 RU (response units).

rhOP-1 (rhBMP-7) = target: T3, rhOP-1 (rhBMP-7) (Homo sapiens, UniProt P18075); assay: Surface plasmon resonance kinetic analysis (Biacore X), ligand rhOP-1; type: binding; details: ligand rhOP-1 (rhBMP-7)
T3 construct: purchased R&D Systems, Minneapolis, Minn
T3 sequence (P18075 293-431): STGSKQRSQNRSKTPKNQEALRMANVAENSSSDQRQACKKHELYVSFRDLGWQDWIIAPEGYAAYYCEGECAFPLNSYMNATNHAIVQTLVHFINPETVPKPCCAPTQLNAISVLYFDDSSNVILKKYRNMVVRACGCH
Experimental: as §1

rhTGF-β = assay: Surface plasmon resonance kinetic analysis (Biacore X), ligand rhTGF-β; type: binding, human
Experimental: as §1

Lewis rats = assay: Posterolateral intertransverse process spinal fusion at L4-L5 (radiographs, manual palpation, micro-CT); type: in vivo, rat; details: ACS with 1000 μg BBP, no rhOP-1, 8 weeks
From the text: A total of 120 male Lewis rats (8 weeks of age, 200-260 g, Charles River, Wilmington, Mass.) were divided into 8 groups. Groups differed only by the materials added to the ACS (5×5×13 mm) that were applied to the surgical sites. The preparation of the implants was previously described in detail. (Alanay, et al., The adjunctive effect of a binding peptide on bone morphogenetic protein enhanced bone healing in a rodent model of spinal fusion. Spine 2008; 33:1709-13). Implanted rhOP-1 was obtained from Stryker Biotech, Hopkinton, Mass. […] Animals were sacrificed 8 weeks after surgery with CO2.
Surgical Technique. Animals were anesthetized with 2-2.5% isoflurane administered in oxygen (1 L/min) and the surgical site was shaved and disinfected with alternative betadine and 70% alcohol. Animals were premedicated with 0.15 mg buprenorphine and postoperatively received tapered doses every 12 hours for 2 days. […]
Radiographic Analysis. […] Radiographs were evaluated by 3 independent observers employing the following standardized scale: 0: no fusion; 1: incomplete fusion with bone formation present; and 2: complete fusion. […]
Manual Assessment of Fusion. Eight weeks after surgery, the spines were removed and evaluated by three blinded independent observers for intersegmental motion. […] Spines were scored as either fused or not fused. […]

[1] = BBP 50 μg implanted with 5 μg of rhBMP-2, densitometry
[2] = BBP 500 μg implanted with 5 μg of rhBMP-2, densitometry

kd “stability” (rhBMP-2; ligand rhBMP-2): 0.00169 s⁻¹
kd “stability” (rmGDF-5): 0.00352 s⁻¹
kd “stability” (rhOP-1 (rhBMP-7)): 0.00369 s⁻¹
kd “stability” (rhTGF-β; ligand rhTGF-β): 0.00175 s⁻¹
KD (kd/ka) “affinity” (rhTGF-β; ligand rhTGF-β on CM-5 chip, Langmuir analysis): 68 nM
ectopic calcification in BBP only treatment groups (Lewis rats): Nor was ectopic calcification observed
Molecule: CSCC[C@@H]1NC(=O)[C@H](CCCNC(=N)N)NC(=O)[C@H](C(C)C)NC(=O)[C@H]([C@@H](C)O)NC(=O)[C@H](CO)NC(=O)[C@H](CCCNC(=N)N)NC(=O)[C@@H](N)CSSC[C@@H](C(=O)O)NC(=O)[C@H](CCCNC(=N)N)NC(=O)[C@H](C(C)C)NC(=O)[C@H](Cc2c[nH]c3ccccc23)NC(=O)[C@H](C(C)C)NC(=O)[C@H](CC(N)=O)NC(=O)[C@H](CCC(N)=O)NC(=O)[C@H](C(C)C)NC(=O)[C@H](CCC(N)=O)NC(=O)[C@H](CCC(=O)O)NC(=O)[C@H](C)NC(=O)[C@H](CO)NC1=O [BBP]
amount of ectopic bone formed, measured by densitometry, versus identical amount of rhBMP-2 alone (Swiss-Weber mice; 500 μg of BBP implanted with 5 μg of rhBMP-2): consistently greater
histological section of mouse muscle (Swiss-Weber mice; 500 μg of BBP in atelocollagen, 21 days after implantation, H & E stain): dystrophic calcification primarily associated with intramuscular adipose tissue
calcification when implanted alone with carrier (radiogram) (Swiss-Weber mice; 500 μg of BBP in atelocollagen, mouse hind quarters, 21 days after implantation): induced calcification
Bone Area (Swiss-Weber mice; [1]): 0.159 ± 0.0606 cm^2
Bone Mineral Content (Swiss-Weber mice; [1]): 0.00388 ± 0.0017 g
Bone Area (Swiss-Weber mice; [2]): 0.226 ± 0.0270 cm^2
Bone Mineral Content (Swiss-Weber mice; [2]): 0.00528 ± 0.00068 g
ka “recognition” (rhTGF-β; ligand rhTGF-β): 27700 M⁻¹ s⁻¹
induction of spinal fusion by BBP by itself (Lewis rats): did not induce any degree of fusion

ka “recognition” (rhBMP-2; ligand rhBMP-2): 311000 M⁻¹ s⁻¹
kd “stability” (rhBMP-2; ligand rhBMP-2): 0.0055 s⁻¹
KD (kd/ka) “affinity” (rhBMP-2; ligand rhBMP-2 on CM-5 chip, Langmuir analysis): 17.7 nM
B1: spp24: parental protein of BBP, secreted phosphoprotein, 24 kD (protein)
chain: FPVYDYDPASLKEALSASVAKVNSQSLSPYLFRAFRSSVKRVNALDEDSLTMDLEFRIQETTCRRESEADPATCDFQRGYHVPVAVCRSTVRMSAEQVQNVWVRCHWSSSSGSSSSEEMFFGDILGSSTSRNSYLLGLTPDRSRGEPLYEPSREMRRNFPLGNRRYSNPWPRARVNPGFE

— patent US9072709B2 (The Regents of the University of California, priority 2009, dated 2015)
